Test results published in article PMC9025941, “Influence of the Type of Amino Acid on the Permeability and Properties of Ibuprofenates of Isopropyl Amino Acid Esters” (International Journal of Molecular Sciences, 2022).
Marks after values point to notes of the source that are not given here.

Assay: n-octanol-water partition coefficient, shake flask method
Conditions: n-octanol/water
`CC(C)Cc1ccc(C(C)C(=O)O)cc1` (racemic) [IBU, (RS)-2-(4-(2-methylpropyl)phenyl)propanoic acid, reference compound] gave a logP at 3 h of 3.208 ± 0.002.

Same assay, conditions: shake flask, 25 °C
In the case of `CC(C)Cc1ccc(C(C)C(=O)O)cc1.CC(C)OC(=O)C[C@H](N)C(=O)OC(C)C` [[L-Asp(OiPr)2][IBU], L-aspartic acid isopropyl ester ibuprofenate], the “Log P (n-octanol-water partition coefficient)” value is reported as 1.506 ± 0.001.

Assay: not given
Conditions: 24 h penetration, n = 3
For `CC(C)Cc1ccc(C(C)C(=O)O)cc1.CC(C)OC(=O)C[C@H](N)C(=O)OC(C)C` [[L-Asp(OiPr)2][IBU], L-aspartic acid isopropyl ester ibuprofenate], the “Accumulation in the skin” value was 406.961 ± 17.799 µg IBU g^−1.

Assay: not given
Conditions: 37 °C, pH 1; cited from earlier work
In the case of `CC(C)Cc1ccc(C(C)C(=O)O)cc1` (racemic) [IBU, (RS)-2-(4-(2-methylpropyl)phenyl)propanoic acid, reference compound], the solubility is given as 0.038 mg·cm^−3.

Same assay, conditions: 37 °C, pH 4.5; cited from earlier work
For `CC(C)Cc1ccc(C(C)C(=O)O)cc1` (racemic) [IBU, (RS)-2-(4-(2-methylpropyl)phenyl)propanoic acid, reference compound], the solubility is listed as 0.084 mg·cm^−3.

Same assay, conditions: 37 °C, pH 5.5; cited from earlier work
In the case of `CC(C)Cc1ccc(C(C)C(=O)O)cc1` (racemic) [IBU, (RS)-2-(4-(2-methylpropyl)phenyl)propanoic acid, reference compound], the solubility is listed as 0.685 mg·cm^−3.

Same assay, conditions: 37 °C, pH 6.8; cited from earlier work
In the case of `CC(C)Cc1ccc(C(C)C(=O)O)cc1` (racemic) [IBU, (RS)-2-(4-(2-methylpropyl)phenyl)propanoic acid, reference compound], the solubility is given as 3.37 mg·cm^−3.

Assay: Solubility in organic solvents by modified Vogel's method
Conditions: 25 °C
For `CC(C)Cc1ccc(C(C)C(=O)O)cc1.CC(C)OC(=O)C[C@H](N)C(=O)OC(C)C` [[L-Asp(OiPr)2][IBU], L-aspartic acid isopropyl ester ibuprofenate], the “Solubility in DMSO” value was “+ (soluble >100 mg cm^−3)”, the Solubility in chloroform was “+ (soluble >100 mg cm^−3)” and the Solubility in dichloromethane was “+ (soluble >100 mg cm^−3)”. For the same compound, the “Solubility in diethyl ether” value was “+/− (partially soluble 33–100 mg cm^−3)”, the Solubility in ethanol was “+ (soluble >100 mg cm^−3)” and the “Solubility in ethyl acetate” value was “+ (soluble >100 mg cm^−3)”. The Solubility in n-hexane was “− (insoluble <33 mg cm^−3)” and the Solubility in toluene was “+ (soluble >100 mg cm^−3)”.

Assay: Thermal stability (TG/DTG): decomposition onset and maximum mass-loss rate temperature
Conditions: not given
Method: In Figure 5, the thermal stability of ibuprofen and amino acid isopropyl ester ibuprofenates was determined and compared. All TG, DTG, and c-DTA curves are in the Supplementary Materials (Figures S87–S100). The decomposition onset temperature (Tonset) and the temperature of the maximum rate of mass loss (Tmax) were determined.
With `CC(C)Cc1ccc(C(C)C(=O)O)cc1.CC(C)OC(=O)C[C@H](N)C(=O)OC(C)C` [[L-Asp(OiPr)2][IBU], L-aspartic acid isopropyl ester ibuprofenate] the “Tonset, the onset temperature of the thermal degradation” value was 141.7 °C.

Same assay, conditions: TG
In the case of `CC(C)Cc1ccc(C(C)C(=O)O)cc1` (racemic) [IBU, (RS)-2-(4-(2-methylpropyl)phenyl)propanoic acid, reference compound], the “Tonset, the onset temperature of the thermal degradation” value is reported as 189.8 °C.

Assay: not given
Parameters: method as in PMID 35516534
Conditions: determined log P range; cited from earlier work
For `CC(C)Cc1ccc(C(C)C(=O)O)cc1` (racemic) [IBU, (RS)-2-(4-(2-methylpropyl)phenyl)propanoic acid, reference compound], the “log P” value is listed as 2.41–4.00.

Assay: In vitro skin permeation, Franz diffusion cells
Conditions: 24 h, n = 3
In the case of `CC(C)Cc1ccc(C(C)C(=O)O)cc1` (racemic) [IBU, (RS)-2-(4-(2-methylpropyl)phenyl)propanoic acid, reference compound], the “Q%24 h, the percentage of the applied dose permeated after 24 h” value is reported as 7.408 ± 0.648%. In the case of `CC(C)Cc1ccc(C(C)C(=O)O)cc1.CC(C)OC(=O)C[C@H](N)C(=O)OC(C)C` [[L-Asp(OiPr)2][IBU], L-aspartic acid isopropyl ester ibuprofenate], the “Q%24 h, the percentage of the applied dose permeated after 24 h” value is reported as 27.307 ± 2.851%.

Same assay, conditions: 24 h, saturated solution in PBS pH 7.4, mass of compound, n = 3
For `CC(C)Cc1ccc(C(C)C(=O)O)cc1` (racemic) [IBU, (RS)-2-(4-(2-methylpropyl)phenyl)propanoic acid, reference compound], the “Cumulative Permeation Mass” value was 32.001 ± 3.167 ^a µg·cm^−2. For `CC(C)Cc1ccc(C(C)C(=O)O)cc1.CC(C)OC(=O)C[C@H](N)C(=O)OC(C)C` [[L-Asp(OiPr)2][IBU], L-aspartic acid isopropyl ester ibuprofenate], the “Cumulative Permeation Mass” value was 812.658 ± 12.545 ^b µg·cm^−2.

Same assay, conditions: 24 h, saturated solution in PBS pH 7.4, mass of ibuprofen, n = 3
For `CC(C)Cc1ccc(C(C)C(=O)O)cc1` (racemic) [IBU, (RS)-2-(4-(2-methylpropyl)phenyl)propanoic acid, reference compound], the “Cumulative Permeation Mass” value was 32.001 ± 2.801 ^a µg IBU·cm^−2. With `CC(C)Cc1ccc(C(C)C(=O)O)cc1.CC(C)OC(=O)C[C@H](N)C(=O)OC(C)C` [[L-Asp(OiPr)2][IBU], L-aspartic acid isopropyl ester ibuprofenate] the “Cumulative Permeation Mass” value was 395.800 ± 41.320 ^b µg IBU·cm^−2.

Same assay, conditions: n = 3
With `CC(C)Cc1ccc(C(C)C(=O)O)cc1` (racemic) [IBU, (RS)-2-(4-(2-methylpropyl)phenyl)propanoic acid, reference compound] the “LT, lag time” value was 1.399 ± 0.145 h. For `CC(C)Cc1ccc(C(C)C(=O)O)cc1.CC(C)OC(=O)C[C@H](N)C(=O)OC(C)C` [[L-Asp(OiPr)2][IBU], L-aspartic acid isopropyl ester ibuprofenate], the “LT, lag time” value was 1.010 ± 0.054 h.

Same assay, conditions: pig, pH 7.4
`CC(C)Cc1ccc(C(C)C(=O)O)cc1` (racemic) [IBU, (RS)-2-(4-(2-methylpropyl)phenyl)propanoic acid, reference compound] showed a Papp of 19.4 nm/s.

Same assay, conditions: relative to IBU
For `CC(C)Cc1ccc(C(C)C(=O)O)cc1` (racemic) [IBU, (RS)-2-(4-(2-methylpropyl)phenyl)propanoic acid, reference compound], the “EF, enhancement factor” value was 1.00. With `CC(C)Cc1ccc(C(C)C(=O)O)cc1.CC(C)OC(=O)C[C@H](N)C(=O)OC(C)C` [[L-Asp(OiPr)2][IBU], L-aspartic acid isopropyl ester ibuprofenate] the “EF, enhancement factor” value was 3.69.

Same assay, conditions: saturated solution in PBS pH 7.4, n = 3
In the case of `CC(C)Cc1ccc(C(C)C(=O)O)cc1` (racemic) [IBU, (RS)-2-(4-(2-methylpropyl)phenyl)propanoic acid, reference compound], the “JSS, steady-state flux” value is reported as 3.017 ± 0.209 µg IBU cm^−2 h^−1. For `CC(C)Cc1ccc(C(C)C(=O)O)cc1.CC(C)OC(=O)C[C@H](N)C(=O)OC(C)C` [[L-Asp(OiPr)2][IBU], L-aspartic acid isopropyl ester ibuprofenate], the “JSS, steady-state flux” value was 55.063 ± 1.425 µg IBU cm^−2 h^−1.

Same assay, conditions: saturated solution in PBS pH 7.4, n = 3; listed as ibuprofen
For `CC(C)Cc1ccc(C(C)C(=O)O)cc1` (racemic) [IBU, (RS)-2-(4-(2-methylpropyl)phenyl)propanoic acid, reference compound], the “JSS, steady-state flux” value was 3.017 µg IBU cm^−2 h^−1.

Assay: Solubility (saturation concentration) in deionised water and PBS pH 7.4, HPLC
Conditions: PBS pH 7.4, 32 °C; g of active compound (IBU)
In the case of `CC(C)Cc1ccc(C(C)C(=O)O)cc1.CC(C)OC(=O)C[C@H](N)C(=O)OC(C)C` [[L-Asp(OiPr)2][IBU], L-aspartic acid isopropyl ester ibuprofenate], the “Solubility in Phosphate Buffer pH = 7.4” value is reported as 1.449 ± 0.009 g IBU∙dm^−3.

Same assay, conditions: PBS pH 7.4, 32 °C; g of compound
With `CC(C)Cc1ccc(C(C)C(=O)O)cc1.CC(C)OC(=O)C[C@H](N)C(=O)OC(C)C` [[L-Asp(OiPr)2][IBU], L-aspartic acid isopropyl ester ibuprofenate] the “Solubility in Phosphate Buffer pH = 7.4” value was 2.976 ± 0.018 g∙dm^−3.

Same assay, conditions: water, 25 °C; g of active compound (IBU)
With `CC(C)Cc1ccc(C(C)C(=O)O)cc1.CC(C)OC(=O)C[C@H](N)C(=O)OC(C)C` [[L-Asp(OiPr)2][IBU], L-aspartic acid isopropyl ester ibuprofenate] the “Solubility in Water” value was 1.159 ± 0.001 g IBU∙dm^−3.

Same assay, conditions: water, 25 °C; g of compound
In the case of `CC(C)Cc1ccc(C(C)C(=O)O)cc1.CC(C)OC(=O)C[C@H](N)C(=O)OC(C)C` [[L-Asp(OiPr)2][IBU], L-aspartic acid isopropyl ester ibuprofenate], the “Solubility in Water” value is reported as 2.380 ± 0.003 g∙dm^−3.
